Experimental data taken from patent US20220143116A1 (priority 2019, published 2022).
Where “and” joins values, the source holds several entries; their conditions need not be identical. Identical values can stand only once.

Tests used:
B16TK cells = type: cell-based, murine
[1] = tested on: B16TK (scrambled shRNA) or B16TK (shRNA APOBEC3) tumors; set-up: species or system C57Bl/6 mice; details: mouse, in vivo
B16TK-hAPOBEC3B tumors = tested on: B16TK-hAPOBEC3B tumors; set-up: species or system C57BL/6 mice; details: mouse, in vivo
[2] = tested on: B16TK-hAPOBEC3B subcutaneous tumors; set-up: species or system C57BL/6 mice; details: mouse, in vivo

Nc1nc(O)c2ncn(COC(CO)CO)c2n1 [ganciclovir]
sensitivity of B16TK cells to treatment (B16TK cells): sensitive | long term survivors [1]: 0/7 and 4/7 | tumor growth following GCV treatment (B16TK-hAPOBEC3B tumors): grew significantly more quickly | tumor growth following GCV treatment [2]: grew significantly more quickly
